Measured values published in US10191050B2, “Rationale, methods, and assays for identifying human and non-human primate taste specific genes and use thereof in taste modulator and therapeutic screening assays” (SENOMYX, INC., priority 2007, dated 2019).

Test system: perceived human salt intensity
Test: Human salty taste test: effect on perceived salt intensity (experiments by the inventors)
Type: in vivo
Description: Unlike other mammals, amiloride only slightly reduces the intensity of sodium chloride taste, i.e., by about 15-20% when used at concentrations that specifically modulate ENaC function (Halpern, B. P. (1998) Neuroscience and Behavioral Reviews. 23: 5-47). […] Thus, additional non-ENaC genes are likely involved in human salty taste.

Compound | effect on perceived human salt intensity (tested at 300-fold above IC50 for alpha beta gamma ENaC (10-fold over IC50 for delta beta gamma ENaC)) | effect on perceived human salt intensity (tested at 3000-fold above IC50 for alpha beta gamma ENaC (100-fold over IC50 for delta beta gamma ENaC))
N=C(N)NC(=O)c1nc(Cl)c(N)nc1N [amiloride] | did not elicit a significant effect | 
NC(=Nc1ccccc1)NC(=O)c1nc(Cl)c(N)nc1N [phenamil] |  | did not elicit a significant effect
